Measured values: article PMC4529466, “Intradermal insulin infusion achieves faster insulin action than subcutaneous infusion for 3-day wear” (Drug Delivery and Translational Research, 2015)

Test system: blood glucose
Experiment: Postprandial blood glucose pharmacodynamics after meal bolus, 3-day ID vs SC infusion
Assay type: in vivo, human (T1DM patients)
Conditions: SC; for BGavg0–1 / BGmax0–1 / ΔAUC-BG0–1 / ΔBGmax0–1 / BGavg0–1.5 / BGmax0–1.5 / ΔAUC-BG0–1.5 / ΔBGmax0–1.5 / BGavg0–2 / BGmax0–2 / ΔAUC-BG0–2 / ΔBGmax0–2 / BGavg0–4 / BGmax0–4 / ΔAUC-BG0–4 / ΔBGmax0–4 / BG1 / ΔBG1 / BG1.5 / ΔBG1.5 / BG2 / ΔBG2 / BG4 / ΔBG4: mean ± SD; for BG1 / ΔBG1: at 1 h; for BG1.5 / ΔBG1.5: at 1.5 h; for BG2 / ΔBG2: at 2 h; for BG4 / ΔBG4: at 4 h
Description: This was a single center, open-label, two-period crossover study, randomized by infusion order, in T1DM patients on continuous subcutaneous insulin infusion (CSII). The protocol was approved by an independent ethics committee (Ethikkommission der Ärztekammer Nordrhein, Düsseldorf, Germany), appropriate regulatory bodies (German Federal Institute for Drugs and Medical Devices (BfArM)), and conducted in compliance with good clinical practice (GCP), the Declaration of Helsinki, and applicable regulatory requirements.
The study was completed over a multi-week period consisting of three study visits: a screening visit (V1) and two interventional visits (V2 and V3). After establishing eligibility and enrollment, patients received treatment during two interventional visits: one SC and one ID basal/bolus infusion of insulin aspart (NovoRapid® U-100, Novo Nordisk, Copenhagen, Denmark) administered over 3 days in a randomized order.
Individual meal bolus doses were determined based on patient self-reported insulin to carbohydrate ratios and insulin sensitivity, historical self-reported insulin usage for meal coverage, and clinician review and adjustment of insulin usage during the in-clinic BG stabilization period the evening prior to the first morning meal. Basal insulin infusion rates were initiated based on the patient’s known daily delivery profile and could be adjusted by the clinician to maintain levels within 70–160 mg/dL according to a predetermined sliding scale and hourly changes in glycemia. A continuous glucose monitor (Seven Plus®, DexCom Inc., San Diego, CA) calibrated per manufacturer’s recommendations was applied to continuously monitor glycemia as a safety measure, in addition to periodic blood sampling for BG determination.
After maintaining targeted blood glucose range during the preceding night, bolus insulin doses were administered via the respective infusion catheter prior to standardized breakfast and lunch test meals on each of the three treatment days. Each meal insulin bolus was calculated based on the patient’s insulin sensitivity and previous hours change in BG per sliding scale then delivered immediately prior to breakfast (t = 0 min) and lunch (t = 360 min) consumption. Breakfast was a high glycemic index (60 g carbohydrates) solid meal, and lunch was a mixed meal based on the individual’s calculated daily energy intake and equivalent in caloric composition by day. Breakfast and lunch meals were consumed within 15 min followed by serial blood sampling with BG monitoring for a period of 6 and 4 h, respectively. Patients were asked to remain sedentary for 2 h after meals. Identical study procedures were utilized for the remaining dosing visit days (Fig. 2).
To assess insulin absorption kinetics and glycemic response, blood samples for measurements of insulin aspart and blood glucose in serum were drawn at predefined time points throughout dosing visits. Serial samples for safety BG determination, but not PK analysis, were obtained at a minimum every 2 h. Meal PK/PD analysis samples were acquired immediately pre-bolus and for 4–6 h post-bolus for breakfast and lunch meals, with a higher frequency during the first 2 h to capture insulin and BG peak levels {Post-bolus breakfast time points (min): 0, 10, 15, 20, 25, 30, 35, 40, 45, 50, 55, 60, 65, 70, 80, 90, 120, 150, 180, 210, 240, 300, 330, 360; Post-bolus lunch time points (min): 0, 10, 20, 30, 40, 50, 60, 70, 80, 90, 120, 180, 240, 300}. Sampling times were based on previous clinical study experience for bolus microneedle insulin delivery and had increased sampling frequency in the first 90 min post-delivery to capture the rapid insulin peaks from microneedle ID delivery. Blood samples for evening meal and basal period PK assessment could not be obtained due to daily blood draw volume limits for patient safety. Serum insulin aspart was measured by a third party laboratory (IKFE GmbH, Mainz, Germany) using a validated insulin assay (Invitron ELISA kit). […]

[1] = 0–1 h, Days 1–3 combined, all test meals, n = 150–156
[2] = 0–1 h, across all study days and meals
[3] = 0–1.5 h, Days 1–3 combined, all test meals, n = 150–156
[4] = 0–1.5 h, across all study days and meals
[5] = 0–2 h, Days 1–3 combined, all test meals, n = 150–156
[6] = 0–2 h, across all study days and meals
[7] = 0–4 h, Days 1–3 combined, all test meals, n = 150–156
[8] = Days 1–3 combined, all test meals, n = 150–156

insulin aspart
BG at 1 h: 165 | BGavg0–1 (0–1 h, Day 1, across meals): 138 ± 33.4 mg/dL | BGmax0–1 (0–1 h, Day 1, across meals): 166 ± 40.1 mg/dL | ΔAUC-BG0–1 (0–1 h, Day 1, across meals): 29.1 ± 25.7 mg·h/dL | ΔBGmax0–1 (0–1 h, Day 1, across meals): 57.1 ± 36.0 mg/dL | BGavg0–1 (0–1 h, Day 2, across meals): 147 ± 32.5 mg/dL | BGmax0–1 (0–1 h, Day 2, across meals): 176 ± 39.2 mg/dL | ΔAUC-BG0–1 (0–1 h, Day 2, across meals): 26.7 ± 20.9 mg·h/dL | ΔBGmax0–1 (0–1 h, Day 2, across meals): 55.8 ± 31.0 mg/dL | BGavg0–1 (0–1 h, Day 3, across meals): 145 ± 30.3 mg/dL | BGmax0–1 (0–1 h, Day 3, across meals): 175 ± 37.9 mg/dL | ΔAUC-BG0–1 (0–1 h, Day 3, across meals): 26.5 ± 19.5 mg·h/dL | ΔBGmax0–1 (0–1 h, Day 3, across meals): 57.2 ± 33.0 mg/dL | BGavg0–1 [1]: 143 ± 32.2 mg/dL | BGmax0–1 [1]: 172 ± 39.2 mg/dL | ΔAUC-BG0–1 [1]: 27.5 ± 22.2 mg·h/dL | ΔBGmax0–1 [1]: 56.7 ± 33.3 mg/dL | Intra-subject variability of BGavg [2]: 18.2 %CV | Intra-subject variability of BGmax [2]: 18.1 %CV | BGavg0–1.5 (0–1.5 h, Day 1, across meals): 144 ± 36.0 mg/dL | BGmax0–1.5 (0–1.5 h, Day 1, across meals): 174 ± 43.6 mg/dL | ΔAUC-BG0–1.5 (0–1.5 h, Day 1, across meals): 53.4 ± 46.7 mg·h/dL | ΔBGmax0–1.5 (0–1.5 h, Day 1, across meals): 65.0 ± 42.3 mg/dL | BGavg0–1.5 (0–1.5 h, Day 2, across meals): 154 ± 35.3 mg/dL | BGmax0–1.5 (0–1.5 h, Day 2, across meals): 182 ± 41.7 mg/dL | ΔAUC-BG0–1.5 (0–1.5 h, Day 2, across meals): 50.8 ± 40.9 mg·h/dL | ΔBGmax0–1.5 (0–1.5 h, Day 2, across meals): 61.6 ± 33.2 mg/dL | BGavg0–1.5 (0–1.5 h, Day 3, across meals): 152 ± 33.4 mg/dL | BGmax0–1.5 (0–1.5 h, Day 3, across meals): 182 ± 40.0 mg/dL | ΔAUC-BG0–1.5 (0–1.5 h, Day 3, across meals): 51.3 ± 39.8 mg·h/dL | ΔBGmax0–1.5 (0–1.5 h, Day 3, across meals): 63.9 ± 36.8 mg/dL | BGavg0–1.5 [3]: 150 ± 35.0 mg/dL | BGmax0–1.5 [3]: 179 ± 41.8 mg/dL | ΔAUC-BG0–1.5 [3]: 51.9 ± 42.5 mg·h/dL | ΔBGmax0–1.5 [3]: 63.6 ± 37.6 mg/dL | Intra-subject variability of BGavg [4]: 18.2 %CV | Intra-subject variability of BGmax [4]: 17.9 %CV | BGavg0–2 (0–2 h, Day 1, across meals): 147 ± 39.3 mg/dL | BGmax0–2 (0–2 h, Day 1, across meals): 178 ± 49.1 mg/dL | ΔAUC-BG0–2 (0–2 h, Day 1, across meals): 77.0 ± 73.2 mg·h/dL | ΔBGmax0–2 (0–2 h, Day 1, across meals): 69.7 ± 49.0 mg/dL | BGavg0–2 (0–2 h, Day 2, across meals): 157 ± 38.2 mg/dL | BGmax0–2 (0–2 h, Day 2, across meals): 186 ± 43.4 mg/dL | ΔAUC-BG0–2 (0–2 h, Day 2, across meals): 73.6 ± 63.3 mg·h/dL | ΔBGmax0–2 (0–2 h, Day 2, across meals): 65.5 ± 34.7 mg/dL | BGavg0–2 (0–2 h, Day 3, across meals): 155 ± 36.1 mg/dL | BGmax0–2 (0–2 h, Day 3, across meals): 186 ± 42.4 mg/dL | ΔAUC-BG0–2 (0–2 h, Day 3, across meals): 75.1 ± 63.0 mg·h/dL | ΔBGmax0–2 (0–2 h, Day 3, across meals): 68.1 ± 40.3 mg/dL | BGavg0–2 [5]: 153 ± 38.0 mg/dL | BGmax0–2 [5]: 183 ± 45.1 mg/dL | ΔAUC-BG0–2 [5]: 75.3 ± 66.5 mg·h/dL | ΔBGmax0–2 [5]: 67.8 ± 41.8 mg/dL | Intra-subject variability of BGavg [6]: 19.3 %CV | Intra-subject variability of BGmax [6]: 18.5 %CV | BGavg0–4 (0–4 h, Day 1, across meals): 142 ± 41.2 mg/dL | BGmax0–4 (0–4 h, Day 1, across meals): 179 ± 44.4 mg/dL | ΔAUC-BG0–4 (0–4 h, Day 1, across meals): 133 ± 160 mg·h/dL | ΔBGmax0–4 (0–4 h, Day 1, across meals): 76.5 ± 54.6 mg/dL | BGavg0–4 (0–4 h, Day 2, across meals): 155 ± 44.0 mg/dL | BGmax0–4 (0–4 h, Day 2, across meals): 193 ± 49.3 mg/dL | ΔAUC-BG0–4 (0–4 h, Day 2, across meals): 140 ± 157 mg·h/dL | ΔBGmax0–4 (0–4 h, Day 2, across meals): 72.3 ± 40.0 mg/dL | BGavg0–4 (0–4 h, Day 3, across meals): 156 ± 40.1 mg/dL | BGmax0–4 (0–4 h, Day 3, across meals): 194 ± 41.7 mg/dL | ΔAUC-BG0–4 (0–4 h, Day 3, across meals): 154 ± 148 mg·h/dL | ΔBGmax0–4 (0–4 h, Day 3, across meals): 76.2 ± 40.4 mg/dL | BGavg0–4 [7]: 151 ± 42.0 mg/dL | BGmax0–4 [7]: 188 ± 45.4 mg/dL | ΔAUC-BG0–4 [7]: 142 ± 155 mg·h/dL | ΔBGmax0–4 [7]: 75.0 ± 45.6 mg/dL | Intra-subject variability of BGmax (0–4 h, across all study days and meals): 18.0 %CV | BG1 (Day 1, across meals): 158 ± 43.8 mg/dL | ΔBG1 (Day 1, across meals): 49.0 ± 41.5 mg/dL | BG1 (Day 2, across meals): 169 ± 40.9 mg/dL | ΔBG1 (Day 2, across meals): 48.8 ± 37.9 mg/dL | BG1 (Day 3, across meals): 170 ± 40.9 mg/dL | ΔBG1 (Day 3, across meals): 51.8 ± 37.9 mg/dL | BG1 [8]: 165 ± 42.1 mg/dL | ΔBG1 [8]: 49.8 ± 39.0 mg/dL | BG1.5 (Day 1, across meals): 156 ± 51.2 mg/dL | ΔBG1.5 (Day 1, across meals): 47.5 ± 51.9 mg/dL | BG1.5 (Day 2, across meals): 167 ± 48.3 mg/dL | ΔBG1.5 (Day 2, across meals): 47.2 ± 44.8 mg/dL | BG1.5 (Day 3, across meals): 167 ± 48.3 mg/dL | ΔBG1.5 (Day 3, across meals): 48.9 ± 48.1 mg/dL | BG1.5 [8]: 163 ± 49.3 mg/dL | ΔBG1.5 [8]: 47.9 ± 48.2 mg/dL | BG2 (Day 1, across meals): 152 ± 60.1 mg/dL | ΔBG2 (Day 1, across meals): 43.7 ± 62.7 mg/dL | BG2 (Day 2, across meals): 164 ± 54.2 mg/dL | ΔBG2 (Day 2, across meals): 44.0 ± 51.2 mg/dL | BG2 (Day 3, across meals): 164 ± 52.3 mg/dL | ΔBG2 (Day 3, across meals): 46.2 ± 52.4 mg/dL | BG2 [8]: 160 ± 55.7 mg/dL | ΔBG2 [8]: 44.6 ± 55.6 mg/dL | BG4 (Day 1, across meals): 139 ± 52.4 mg/dL | ΔBG4 (Day 1, across meals): 29.7 ± 53.3 mg/dL | BG4 (Day 2, across meals): 148 ± 59.4 mg/dL | ΔBG4 (Day 2, across meals): 27.7 ± 56.8 mg/dL | BG4 (Day 3, across meals): 153 ± 48.9 mg/dL | ΔBG4 (Day 3, across meals): 35.1 ± 47.2 mg/dL | BG4 [8]: 146 ± 53.7 mg/dL | ΔBG4 [8]: 30.8 ± 52.3 mg/dL | Intra-subject variability of BG (time 1 h, across all study days and meals): 20.2 %CV | Intra-subject variability of BG (time 1.5 h, across all study days and meals): 24.5 %CV | Intra-subject variability of ΔBG (time 2 h, across all study days and meals): 61.4 %CV
